In patent US8741879B2, “Petroleum jelly-free unguent compositions comprising vitamin D compounds and optionally steroidal anti-inflammatory agents” (Galderma S.A., priority 2006, dated 2014):

Assays:
[1] = Solubility of clobetasol propionate in solvents (HPLC); type: physicochemical
Excerpt: a) Solubility of Clobetasol Propionate:

[2] = Stability of calcitriol 30 ppm solution in absolute ethanol with 0.02% BHT (HPLC assay against a reference substance); type: physicochemical; settings: 30 ppm in absolute ethanol
Excerpt: b) Stability of Calcitriol in Ethanol: Calcitriol solution 30 ppm in qs 100% absolute ethanol in the presence of 0.02% BHT. Assay technique by HPLC against a reference substance. The starting time (T0) is considered to be 100%.

Solubility ([1]; in Ethanol 96) [mg/g]	Solubility ([1]; in Propylene glycol) [mg/g]	Solubility ([1]; in Transcutol) [mg/g]	Calcitriol remaining (T0 = 100%) ([2]; +4° C., T1week) [%]	Calcitriol remaining (T0 = 100%) ([2]; +4° C., T2weeks) [%]	Calcitriol remaining (T0 = 100%) ([2]; +4° C., T3weeks) [%]	Calcitriol remaining (T0 = 100%) ([2]; +4° C., T4weeks) [%]	Calcitriol remaining (T0 = 100%) ([2]; +30° C., T2weeks) [%]	Calcitriol remaining (T0 = 100%) ([2]; +30° C., T4weeks) [%]	Calcitriol remaining (T0 = 100%) ([2]; −18° C., T1week) [%]	Calcitriol remaining (T0 = 100%) ([2]; −18° C., T2weeks) [%]	Calcitriol remaining (T0 = 100%) ([2]; −18° C., T3weeks) [%]	Calcitriol remaining (T0 = 100%) ([2]; −18° C., T4weeks) [%]	SMILES
50.40	9.10	120.70	–	–	–	–	–	–	–	–	–	–	CCC(=O)O[C@]1(C(=O)CCl)[C@@H](C)C[C@H]2[C@@H]3CCC4=CC(=O)C=C[C@]4(C)[C@@]3(F)[C@@H](O)C[C@@]21C [Clobetasol Propionate, clobetasol 17-propionate]
–	–	–	97.7	98.6	98.1	97.7	93.4	93.0	100.9	100.5	99.5	99.5	C=C1/C(=C\C=C2/CCC[C@]3(C)[C@@H]([C@H](C)CCCC(C)(C)O)CC[C@@H]23)C[C@@H](O)C[C@@H]1O [Calcitriol, calcitriol]
